In brackets after ≈: the same amount, converted by molar mass. Structures can show the parent of a compound that is named as a salt.

The subject of assay [1] is isolated ileum of guinea pigs. Description: Spasmolytic activity on the isolated ileum of guinea pigs (acetylcholine-induced spasm). The note with it: limits in parentheses, contact time spasmogenic 1 min, spasmolytic 3 min, interval between administrations 5 min; for IC50: Cavia porcellus, 0.05 h, read-out: ED50 and base limits on spasm induced by 100 mg/ml of acetylcholine. Here is the method: (1) (1) induced by 100 mg/ml of acetylcholine
(1) The time of contact of the spasmogenic and spasmolytic substances was
1 and 3 minutes, respectively.
The interval between the administrations was 5 minutes.

Assay [2] concerns anaesthetized mongrel dogs. The experiment in a line: Haemodynamic activities in anaesthetized dogs. In kind it is in vivo. On the set-up: key to Flow coronary / Flow femoral / Contractive power of heart: +++: intense increase; ++: moderate increase; +: faint increase; =: no change. Conditions: intravenous; for Arterial pressure Average variation carotid / Arterial pressure Average variation femoral / Contractive power of heart / Flow coronary / Flow femoral: one twentieth of the LD50: cuanzine HCl 8, hydrazide bitartrate 10, 21-epicuanzine HCl 5, apocuanzine HCl 2.5, dimethylaminoethyl ester 10 mg/kg. As for the experimental part:
The products under investigation were administered intravenously to anaesthetized mongrel dogs in doses which were in proportion to the lethal dose (one twentieth of the LD50).
The average of the carotid and femoral arterial pressures, the […] coronary and femoral flow rates and the contractive power of the heart were measured and the results are shown in Table I.

As to 21-epicuanzine, the “ED50 and base limits on spasm induced by 100 mg/ml of acetylcholine” value in assay [1] is recorded as 37 (68.8 - 19.9) γ/ml.
With `COC(=O)[C@]1(O)C[C@]23CCO[C@H]2CCN2CCc4c(n1c1c(OC)cccc41)[C@H]23` [21-epicuanzine hydrochloride, 21-Epicuanzine (A=β-H,B = CO2 Me, C=OH,D=H) hydrochloride], in assay [2], the “Arterial pressure Average variation carotid” value is recorded as -20 mm Hg, the “Arterial pressure Average variation femoral” value is recorded as -20 mm Hg, the “Contractive power of heart” value is “=” and the Flow coronary result is reported as “++”. Besides, the Flow femoral result in assay [2] is “+”.
Regarding `COC(=O)C1=C[C@]23CCO[C@H]2CCN2CCc4c(n1c1c(OC)cccc41)[C@@H]23` [Apocuanzine hydrochloride, Apocuanzine], in assay [2], the “Arterial pressure Average variation carotid” value is reported as -15 mm Hg, the “Arterial pressure Average variation femoral” value is given as -15 mm Hg, the “Contractive power of heart” value is “+” and the Flow coronary result is reported as “+++”. Further, the Flow femoral result in assay [2] is “+”.
With `COC(=O)C1=C[C@]23CCO[C@H]2CCN2CCc4c(n1c1c(OC)cccc41)[C@@H]23` [Apocuanzine], the IC50 in assay [1] came to 26.5 µg/mL (≈ 69.7 µM).
As to `COc1cccc2c3c([nH]c12)[C@H]1N(CC3)CC[C@@H]2OCC[C@@]21CC(=NN)C(=O)NN` [Cuanzine hydrazide bitartrate], in assay [2], the “Arterial pressure Average variation carotid” value is recorded as -30 mm Hg, the “Arterial pressure Average variation femoral” value is recorded as -30 mm Hg, the “Contractive power of heart” value is listed as “+” and the Flow coronary result was “+++”. Further, the Flow femoral result in assay [2] is “++”. In assay [1], the IC50 came out at 74 µg/mL.
`COC(=O)[C@]1(O)C[C@]23CCO[C@H]2CCN2CCc4c(n1c1c(OC)cccc41)[C@@H]23` [Cuanzine hydrochloride, reference compound]: in assay [2], the “Arterial pressure Average variation carotid” value is given as -10 mm Hg, the “Arterial pressure Average variation femoral” value is given as -10 mm Hg, the “Contractive power of heart” value is recorded as “=” and the Flow coronary result is reported as “++”. In addition, the Flow femoral entry in assay [2] is listed as “+”. In assay [1], the IC50 turned out to be 120 µg/mL.
On to `COc1cccc2c3c4n(c12)[C@](O)(C(=O)OCCN(C)C)C[C@]12CCO[C@H]1CCN(CC3)[C@H]42` [N,N-dimethylaminoethyl nor-cuanzinate], for which, in assay [2] (anaesthetized dogs, one twentieth of the LD50), the “haemodynamic activity compared with cuanzine (in words)” value was “as active as cuanzine”. Besides, in assay [2], the “Arterial pressure Average variation carotid” value is on record as -10 mm Hg, the “Arterial pressure Average variation femoral” value is -10 mm Hg, the “Contractive power of heart” value is “=” and the Flow coronary entry is “++”. In addition, the Flow femoral entry in assay [2] is reported as “+”.

The values are drawn from patent publication US4117133A, “Vasodilating cuanzine hydrazides” (Inverni Della Beffa S.p.A., priority 1975, dated 1978).
